Test results as given in EPA's ToxRefDB 2.

Tests used:
rat [1] = settings: Subchronic oral toxicity in rodents, fischer, Gavage/Intubation, dose end: 13 week, group: systemic
mouse [2] = settings: Chronic toxicity; b6c3f1; Oral; Gavage/Intubation; dose end: 2 year; group: systemic; systemic / pathology microscopic / kidney / necrosis + systemic / pathology microscopic / kidney / regeneration + systemic / pathology …
mouse [3] = settings: Subchronic oral toxicity in rodents, b6c3f1, Gavage/Intubation, dose end: 13 week, group: systemic
rat [4] = settings: Chronic toxicity, fischer, Oral, Gavage/Intubation, dose end: 2 year, group: systemic
rat [5] = settings: Subchronic dermal toxicity, sprague dawley, Topical, dose end: 91 day, group: systemic, systemic / in life observation / clinical signs / skin ulceration
rat [6] = settings: Sub-acute dermal toxicity, sprague dawley, Topical, dose end: 2 week, group: systemic, systemic / in life observation / body weight / body weight gain + systemic / in life observation / food consumption / food consumption
mouse [7] = settings: Sub-acute repeat dose toxicity, b6c3f1, Oral, Water, dose end: 14 day, group: systemic
rat [8] = settings: Sub-acute repeat dose toxicity, fischer, Oral, Water, dose end: 14 day, group: systemic
rat [9] = settings: Carcinogenicity; fischer; Oral; Water; dose end: 103 week; group: systemic; systemic / pathology microscopic / liver / neoplastic nodule + systemic / pathology microscopic / liver / cellular alteration + systemic / …
mouse [10] = settings: Carcinogenicity, b6c3f1, Oral, Water, dose end: 103 week, group: systemic
rat [11] = settings: Subchronic oral toxicity in rodents, fischer, Water, dose end: 13 week, group: systemic
mouse [12] = settings: Subchronic oral toxicity in rodents, b6c3f1, Water, dose end: 13 week, group: systemic
rat [13] = settings: Fertility (Segment I), sprague dawley, Oral, Gavage/Intubation, dose end: 7 GD, group: parental
mouse [14] = settings: Subchronic oral toxicity in rodents, cd1, Gavage/Intubation, dose end: 3 month, group: systemic
rat [15] = settings: Chronic toxicity, sprague dawley, Oral, Gavage/Intubation, dose end: 6 month, group: systemic
dog [16] = settings: Chronic toxicity, beagle, Oral, Gavage/Intubation, dose end: 6 month, group: systemic
rabbit [17] = settings: Prenatal developmental toxicity study, new zealand white, Oral, Gavage/Intubation, dose end: 18 GD
rat [18] = settings: Sub-acute repeat dose toxicity, sprague dawley, Oral, Gavage/Intubation, dose end: 4 week, group: systemic
rat [19] = settings: Prenatal developmental toxicity study; sprague dawley; Oral; Gavage/Intubation; dose end: 17 GD; group: maternal; systemic / in life observation / body weight / body weight + systemic / in life observation / food consumption / food consumption
dog [20] = settings: Sub-acute repeat dose toxicity; beagle; Oral; Gavage/Intubation; dose end: 4 week; group: systemic; systemic / in life observation / body weight / body weight gain + systemic / in life observation / clinical signs / abnormal feces + …
rabbit [21] = settings: Prenatal developmental toxicity study, new zealand white, Oral, Gavage/Intubation, dose end: 18 GD; remark: listed apart in the source
rat [22] = settings: Prenatal developmental toxicity study; sprague dawley; Oral; Gavage/Intubation; dose end: 17 GD; group: maternal; systemic / in life observation / body weight / body weight gain
rat [23] = settings: Carcinogenicity; fischer; Oral; Feed; dose end: 78 week; group: systemic; systemic / in life observation / body weight / body weight + systemic / pathology microscopic / bone marrow / atrophy
mouse [24] = settings: Carcinogenicity; b6c3f1; Oral; Feed; dose end: 78 week; group: systemic; systemic / in life observation / body weight / body weight
rat [25] = settings: Prenatal developmental toxicity study, sprague dawley, Oral, Gavage/Intubation, dose end: 17 GD
[26] = systemic / pathology microscopic / intestine small / pigmentation + systemic / pathology microscopic / stomach / acanthosis + systemic / …
[27] = systemic / organ weight / kidney / absolute + systemic / organ weight / kidney / relative to body weight + systemic / organ weight / liver…
[28] = systemic / in life observation / body weight / body weight + systemic / pathology microscopic / kidney / hyperplasia + systemic / pathology …
[29] = systemic / pathology microscopic / intestine small / pigmentation + systemic / pathology microscopic / kidney / hemosiderosis + systemic / …
[30] = systemic / in life observation / body weight / body weight gain + systemic / in life observation / water consumption / water consumption + …
[31] = systemic / in life observation / body weight / body weight + systemic / in life observation / body weight / body weight gain + systemic / in…
[32] = systemic / in life observation / water consumption / water consumption
[33] = systemic / pathology microscopic / kidney / nephropathy
[34] = systemic / pathology microscopic / kidney / nephropathy + systemic / pathology microscopic / blood / lymphoma nos
[35] = systemic / in life observation / body weight / body weight + systemic / in life observation / water consumption / water consumption + …
[36] = systemic / in life observation / body weight / body weight + systemic / pathology microscopic / liver / hyperplasia + systemic / pathology …
[37] = systemic / in life observation / body weight / body weight gain + systemic / in life observation / clinical signs / anogenital staining + …
[38] = systemic / in life observation / body weight / body weight gain + systemic / in life observation / clinical signs / red or crusty deposits …
[39] = systemic / clinical chemistry / alanine aminotransferase (alt/sgpt) / alanine aminotransferase (alt/sgpt) + systemic / clinical chemistry / …
[40] = systemic / in life observation / clinical signs / abnormal feces + systemic / in life observation / clinical signs / body surface staining…
[41] = systemic / clinical chemistry / triglycerides / triglycerides + systemic / in life observation / body weight / body weight gain + systemic…
[42] = systemic / in life observation / body weight / body weight gain + systemic / in life observation / clinical signs / [other] + systemic / in …
[43] = systemic / in life observation / clinical signs / emesis + systemic / in life observation / clinical signs / salivation
[44] = group: developmental, systemic / in life observation / body weight / fetal weight
[45] = group: maternal, systemic / in life observation / body weight / body weight gain + systemic / in life observation / food consumption / food consumption
[46] = systemic / in life observation / body weight / body weight gain + systemic / in life observation / clinical signs / abnormal respiratory …
[47] = group: developmental, developmental / developmental malformation / bone / incomplete ossification + systemic / in life observation / body weight / fetal weight
[48] = group: maternal, systemic / in life observation / body weight / body weight + systemic / in life observation / body weight / body weight gain + systemic / in…
[49] = group: developmental, developmental / developmental malformation / bone / fused + developmental / developmental malformation / brain / dilated cerebral ventricle
[50] = group: developmental, developmental / developmental malformation / bone / fused + developmental / developmental malformation / brain / dilated cerebral ventricle…
[51] = group: maternal, reproductive / reproductive performance / resorptions / resorptions + reproductive / offspring survival early / dead fetuses / dead fetuses…

SMILES: Cl.Cl.Nc1ccc(O)c(N)c1 [2,4-Diaminophenol dihydrochloride]
- LOAEL (rat [1]; systemic / organ weight / kidney / relative to body weight + systemic / pathology microscopic / kidney / necrosis): 25 mg/kg/day
- NOAEL (rat [1]; systemic / organ weight / kidney / relative to body weight + systemic / pathology microscopic / kidney / necrosis + systemic / in life …): 12 mg/kg/day
- LEL (rat [1]; [26]): 12 mg/kg/day
- NEL (rat [1]; [26]): < 12 mg/kg/day
- LEL (mouse [2]): 19 mg/kg/day
- LOAEL (mouse [2]): 19 mg/kg/day
- NEL (mouse [2]): < 19 mg/kg/day
- NOAEL (mouse [2]): < 19 mg/kg/day
- LEL (mouse [3]; [27]): 5 mg/kg/day
- NEL (mouse [3]; [27]): < 5 mg/kg/day
- NOAEL (mouse [3]; [27]): 19 mg/kg/day
- LOAEL (mouse [3]; systemic / pathology microscopic / kidney / regeneration): 38 mg/kg/day
- LOAEL (rat [4]; [28]): 25 mg/kg/day
- NOAEL (rat [4]; [28]): 12.5 mg/kg/day
- LEL (rat [4]; [29]): 12.5 mg/kg/day
- NEL (rat [4]; [29]): < 12.5 mg/kg/day

SMILES: CC(O)CSS(C)(=O)=O (configuration not stated) [2-Hydroxypropyl methanethiosulfonate]
- LEL (rat [5]): 10 mg/kg/day
- LOAEL (rat [5]): 10 mg/kg/day
- NEL (rat [5]): < 10 mg/kg/day
- NOAEL (rat [5]): < 10 mg/kg/day
- LEL (rat [6]): 100 mg/kg/day
- LOAEL (rat [6]): 100 mg/kg/day
- NEL (rat [6]): < 100 mg/kg/day
- NOAEL (rat [6]): < 100 mg/kg/day

SMILES: Cl.Cl.Nc1ccc(Cc2ccc(N)cc2)cc1 [4,4'-Methylenedianiline dihydrochloride]
- LOAEL (mouse [7]; systemic / in life observation / body weight / body weight gain + systemic / in life observation / water consumption / water consumption): 120 mg/kg/day
- LEL (mouse [7]; [30]): 120 mg/kg/day
- NEL (mouse [7]; [30]): 60 mg/kg/day
- NOAEL (mouse [7]; [30]): 60 mg/kg/day
- LOAEL (rat [8]; [31]): 40 mg/kg/day
- NOAEL (rat [8]; [31]): 20 mg/kg/day
- LEL (rat [8]; [32]): 10 mg/kg/day
- NEL (rat [8]; [32]): < 10 mg/kg/day
- LEL (rat [9]): 9 mg/kg/day
- LOAEL (rat [9]): 9 mg/kg/day
- NEL (rat [9]): < 9 mg/kg/day
- NOAEL (rat [9]): < 9 mg/kg/day
- LOAEL (mouse [10]; [33]): 19 mg/kg/day
- NOAEL (mouse [10]; [33]): < 19 mg/kg/day
- LEL (mouse [10]; [34]): 19 mg/kg/day
- NEL (mouse [10]; [34]): < 19 mg/kg/day
- LOAEL (rat [11]; [35]): 20 mg/kg/day
- NEL (rat [11]; [35]): 5 mg/kg/day
- NOAEL (rat [11]; [35]): 10 mg/kg/day
- LEL (rat [11]; [32]): 10 mg/kg/day
- LOAEL (mouse [12]; [36]): 60 mg/kg/day
- NOAEL (mouse [12]; [36]): 30 mg/kg/day
- LEL (mouse [12]; [32]): 3.75 mg/kg/day
- NEL (mouse [12]; [32]): < 3.75 mg/kg/day

SMILES: CN1CCN(Cc2cc(-c3ccc4[nH]c(=O)oc4c3)co2)[C@@H](c2ccc(F)cc2)C1.Cl.O [AVE8488]
- LOAEL (rat [13]; [37]): > 150 mg/kg/day
- NOAEL (rat [13]; [37]): ≥ 150 mg/kg/day
- LEL (rat [13]; [38]): 1 mg/kg/day
- NEL (rat [13]; [38]): < 1 mg/kg/day
- LOAEL (mouse [14]; [39]): > 2000 mg/kg/day
- NOAEL (mouse [14]; [39]): ≥ 2000 mg/kg/day
- LEL (mouse [14]; [40]): 50 mg/kg/day
- NEL (mouse [14]; [40]): < 50 mg/kg/day
- LOAEL (rat [15]; [41]): 7 mg/kg/day
- NOAEL (rat [15]; [41]): 1 mg/kg/day
- LEL (rat [15]; [42]): 1 mg/kg/day
- NEL (rat [15]; [42]): < 1 mg/kg/day
- NOAEL (dog [16]; systemic / in life observation / clinical signs / emesis + systemic / clinical chemistry / albumin / albumin + systemic / clinical chemistry…): 5 mg/kg/day
- LEL (dog [16]; [43]): 1 mg/kg/day
- NEL (dog [16]; [43]): < 1 mg/kg/day
- LOAEL (dog [16]; systemic / in life observation / clinical signs / emesis + systemic / in life observation / clinical signs / salivation + systemic / …): 20 mg/kg/day
- LEL (rabbit [17]; [44]): 100 mg/kg/day
- LOAEL (rabbit [17]; [44]): 100 mg/kg/day
- NEL (rabbit [17]; [44]): 50 mg/kg/day
- NOAEL (rabbit [17]; [44]): 50 mg/kg/day
- LEL (rabbit [17]; [45]): 100 mg/kg/day
- LOAEL (rabbit [17]; [45]): 100 mg/kg/day
- NEL (rabbit [17]; [45]): 50 mg/kg/day
- NOAEL (rabbit [17]; [45]): 50 mg/kg/day
- LEL (rat [18]; systemic / clinical chemistry / triglycerides / triglycerides + systemic / in life observation / body weight / body weight gain): 5 mg/kg/day
- NEL (rat [18]; [41]): 0.25 mg/kg/day
- LOAEL (rat [18]; [46]): 50 mg/kg/day
- NOAEL (rat [18]; [46]): 5 mg/kg/day
- LEL (rat [19]): 10 mg/kg/day
- LOAEL (rat [19]): 10 mg/kg/day
- NEL (rat [19]): 1 mg/kg/day
- NOAEL (rat [19]): 1 mg/kg/day
- LEL (dog [20]): 20 mg/kg/day
- LOAEL (dog [20]): 20 mg/kg/day
- NEL (dog [20]): 5 mg/kg/day
- NOAEL (dog [20]): 5 mg/kg/day
- LEL (rabbit [21]; [47]): 150 mg/kg/day
- LOAEL (rabbit [21]; [47]): 150 mg/kg/day
- NEL (rabbit [21]; [47]): 50 mg/kg/day
- NOAEL (rabbit [21]; [47]): 50 mg/kg/day
- LEL (rabbit [21]; [48]): 150 mg/kg/day
- LOAEL (rabbit [21]; [48]): 150 mg/kg/day
- NEL (rabbit [21]; [48]): 50 mg/kg/day
- NOAEL (rabbit [21]; [48]): 50 mg/kg/day
- LEL (rat [22]): 3.7 mg/kg/day
- LOAEL (rat [22]): 25 mg/kg/day
- NEL (rat [22]): 0.79 mg/kg/day
- NOAEL (rat [22]): 3.7 mg/kg/day

SMILES: CCc1nc(N)nc(N)c1-c1ccc(Cl)cc1 [Pyrimethamine]
- LEL (rat [23]): 10 mg/kg/day
- LOAEL (rat [23]): > 20 mg/kg/day
- NEL (rat [23]): < 10 mg/kg/day
- NOAEL (rat [23]): ≥ 20 mg/kg/day
- LEL (mouse [24]): 75 mg/kg/day
- LOAEL (mouse [24]): > 150 mg/kg/day
- NEL (mouse [24]): < 75 mg/kg/day
- NOAEL (mouse [24]): ≥ 150 mg/kg/day
- LEL (rat [25]; [49]): 1.2 mg/kg/day
- NEL (rat [25]; [49]): < 1.2 mg/kg/day
- LOAEL (rat [25]; [50]): > 2.7 mg/kg/day
- NOAEL (rat [25]; [50]): ≥ 2.7 mg/kg/day
- NEL (rat [25]; group: maternal, reproductive / reproductive performance / resorptions / resorptions): 1.2 mg/kg/day
- LEL (rat [25]; [51]): 2.7 mg/kg/day
- LOAEL (rat [25]; [51]): > 2.7 mg/kg/day
- NOAEL (rat [25]; [51]): ≥ 2.7 mg/kg/day
